Experimental data from patent publication US9164102B2, “Methods of screening for TRPM4b modulators” (The Queen's Medical Center, priority 2002, dated 2015).

Biological target: T1, TRPM4b (Homo sapiens, UniProt Q8TD43)
T1 construct: expressed in transfected cells
Assay: Patch-clamp recordings of TRPM4b currents in HEK-293 cells at buffered intracellular Ca2+
Assay type: cell-based
Conditions: cytosolic/intracellular Ca2+
Description: Wild type and tetracycline-inducible […] Flag-TRPM4b-expressing cells were cultured at 37° C./5% CO2 in DMEM supplemented with 10% FBS and 2 mM glutamine. The medium was supplemented with blasticidin (5 μg/ml; Invitrogen) and zeocin (0.4 mg/ml; Invitrogen). Cells were resuspended in media containing 1 μg/ml tetracycline (Invitrogen) 24 hours before experiments. For patch-clamp experiments, cells were kept in a standard Ringer's solution (in mM): NaCl 145, KCl 2.8, CaCl2 1, MgCl2 2, glucose 10, Hepes.NaOH 10, pH 7.2. In some experiments, this solution was modified such that all but 1 mM of NaCl was replaced by choline-Cl (choline-based solution). In experiments where ATP was used, it was added at 1 mM of the Mg^2+ salt and extracellular Ca^2+ concentration was raised to 2 mM. The standard pipette-filling solutions contained (in mM): K-glutamate 145, NaCl 8, MgCl2 1, Cs-BAPTA 10, pH 7.2 adjusted with KOH. In some experiments, [Ca^2+]i was buffered to […] by 10 mM BAPTA and appropriate concentrations of CaCl2 or left unbuffered. For inside-out single-channel recordings, the patch was excised into a similar solution, except that KCl was used instead of K-glutamate. All reagents were purchased from Sigma and dissolved in the standard intracellular solution. […] Capacitive currents and series resistance were determined and corrected before each voltage ramp. […]

T1 sequence (Q8TD43 whole entry): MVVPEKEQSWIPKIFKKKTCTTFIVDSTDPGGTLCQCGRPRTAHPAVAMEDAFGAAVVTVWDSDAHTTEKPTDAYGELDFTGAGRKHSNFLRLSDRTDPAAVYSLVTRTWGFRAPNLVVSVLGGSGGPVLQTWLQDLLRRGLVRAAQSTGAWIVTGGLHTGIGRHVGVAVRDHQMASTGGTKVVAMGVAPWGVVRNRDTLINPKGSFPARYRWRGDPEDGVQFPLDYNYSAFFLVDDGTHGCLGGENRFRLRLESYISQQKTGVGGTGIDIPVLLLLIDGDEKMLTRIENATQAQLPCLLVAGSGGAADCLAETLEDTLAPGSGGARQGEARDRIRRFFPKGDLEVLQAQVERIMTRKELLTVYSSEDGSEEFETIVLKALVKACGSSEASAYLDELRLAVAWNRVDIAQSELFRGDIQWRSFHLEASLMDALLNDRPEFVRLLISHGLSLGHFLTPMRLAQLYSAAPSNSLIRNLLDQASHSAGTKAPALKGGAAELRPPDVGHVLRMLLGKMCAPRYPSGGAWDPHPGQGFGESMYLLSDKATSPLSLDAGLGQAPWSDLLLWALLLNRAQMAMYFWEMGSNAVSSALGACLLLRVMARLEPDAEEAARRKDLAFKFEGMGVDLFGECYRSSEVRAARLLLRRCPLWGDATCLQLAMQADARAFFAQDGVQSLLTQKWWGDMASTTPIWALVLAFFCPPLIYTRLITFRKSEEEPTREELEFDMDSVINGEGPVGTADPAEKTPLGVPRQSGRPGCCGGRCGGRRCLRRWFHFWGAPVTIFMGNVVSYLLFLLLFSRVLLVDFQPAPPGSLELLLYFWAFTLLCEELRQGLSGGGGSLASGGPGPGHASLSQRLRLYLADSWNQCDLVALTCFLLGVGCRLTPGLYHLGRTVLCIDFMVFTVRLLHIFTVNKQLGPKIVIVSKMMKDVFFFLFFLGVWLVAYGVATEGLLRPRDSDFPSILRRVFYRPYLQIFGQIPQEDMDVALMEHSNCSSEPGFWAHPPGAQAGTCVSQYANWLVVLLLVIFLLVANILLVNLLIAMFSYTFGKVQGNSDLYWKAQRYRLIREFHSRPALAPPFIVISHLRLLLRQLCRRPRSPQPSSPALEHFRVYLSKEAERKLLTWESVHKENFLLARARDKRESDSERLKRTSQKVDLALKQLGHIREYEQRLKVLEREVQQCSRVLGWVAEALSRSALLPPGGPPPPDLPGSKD

[Ca+2] [Ca^2+]
Ca^2+ concentration at which direct gating of the TRPM4b channel appears to begin: ~300 nM
